Patent publication EP0255256A2, “Antibiotics produced by actinomadura parvosata” (SMITHKLINE BECKMAN CORPORATION, priority 1986, dated 1988)
Where two headings read alike, the source gives them in different places.

Columns and labels:
Strep. faecalis 34358 [1] = test: Mouse protection assay; format: in vivo
[2] = Serum half-life and urine concentration in mice (disk agar diffusion bioassay); conditions: mouse, in vivo; strain CD-1 mice; antibiotic activity in blood serum by disk agar diffusion, Bacillus subtilis ATCC 6633 indicator
Method: The antibiotic compounds of the present invention also have a very long serum half-life. The compounds of the present invention have a serum half-life of 12 hours compared to 0.3 hour for vancomycin. […] Antibiotic activity in blood serum was evaluated by disk agar diffusion with penicillin assay agar that was seeded with a Bacillus subtilis ATCC 6633 spore suspension as the indicator. Serum samples were evaluated against standards diluted in mouse serum and urines were evaluated against standards prepared in 1% pH 6 phosphate buffer. Assays were incubated at 28°C. […] The long half-life of the compounds of the present invention indicate usefulness prophylactically as an aid in prevention of infection.

[3] = system: Staph. saprophyticus 2657; test: MBC, standard assay procedures; format: cell-based; conditions: Staphylococcus saprophyticus, 2657, read-out: MBC in μg/ml
Method: (§1) The in vitro minimal inhibitory concentration (MIC) and the in vitro minimal bactericidal concentration (MBC) of the AAJ-271 aglycones, pseudo-aglycone and vancomycin were determined for a number of microorganisms using the standard microtiter assay procedures.

[4] = system: Staph. aureus 209P vancomycin resistant mutant; test: MBC, standard assay procedures; format: cell-based; conditions: Staphylococcus aureus, read-out: MBC in μg/ml
Method: as §1

Staph. aureus 209P = test: MBC, standard assay procedures; format: cell-based; conditions: Staphylococcus aureus, 209P, read-out: MBC in μg/ml
Method: as §1

Staph. aureus 910 [5] = test: MBC, standard assay procedures; format: cell-based; conditions: Staphylococcus aureus, 910, read-out: MBC in μg/ml
Method: as §1

Staph. epidermidis 2588 = test: MBC, standard assay procedures; format: cell-based; conditions: Staphylococcus epidermidis, 2588, read-out: MBC in μg/ml
Method: as §1

[6] = system: Strep. pyogenes (Group A); test: MBC, standard assay procedures; format: cell-based; conditions: Streptococcus pyogenes, read-out: MBC in μg/ml
Method: as §1

Staph. epidermidis 2256 = test: MBC, standard assay procedures; format: cell-based; conditions: Staphylococcus epidermidis, 2256, read-out: MBC in μg/ml
Method: as §1

Staph. epidermidis 2261 [7] = test: MBC, standard assay procedures; format: cell-based; conditions: Staphylococcus epidermidis, 2261, read-out: MBC in μg/ml
Method: as §1

Staph. epidermidis 2479 [8] = test: MIC, standard microtiter assay; format: cell-based; conditions: Staphylococcus epidermidis, 2479, read-out: MIC in μg/ml, Staph. epidermidis 2479
Method: (§2) The in vitro minimal inhibitory concentration (MIC) of the AAJ-271 complex and its factors, and vancomycin were determined for a number of microorganisms using the standard microtite'r assay procedures. The results are shown in the following tables, each of which represents a different production run of the complex.
as §1

Staph. aureus 910 [9] = test: MIC, standard microtiter assay; format: cell-based
Method: as §2, §1

Staph. aureus HH127 [10] = test: Mouse protection assay; format: in vivo; conditions: Staphylococcus aureus
[11] = system: Staph. aureus 209P vancomycin resistant mutant; test: MIC, standard microtiter assay; format: cell-based; conditions: Staphylococcus aureus, read-out: MIC in μg/ml
Method: as §1

Staph. epidermidis 2261 [12] = test: MIC, standard microtiter assay; format: cell-based; conditions: Staphylococcus epidermidis, 2261, read-out: MIC in μg/ml
Method: as §1

Staph. aureus HH127 [13] = test: MBC, standard assay procedures; format: cell-based; conditions: Staphylococcus aureus
Method: (§3) The in vitro minimal bactericidal concentration (MBC) of the AAJ-271 C, C2 and C3 factors and vancomycin were determined for a number of microorganisms using standard assay procedures.
as §1

Strep. faecalis 657 = test: MBC, standard assay procedures; format: cell-based
Method: as §3, §1

Staph. epidermidis 2479 [14] = test: MBC, standard assay procedures; format: cell-based
Method: as §3, §1

Strep. faecalis 34358 [15] = test: MBC, standard assay procedures; format: cell-based
Method: as §3, §1

Staph. haemolyticus 651 [16] = test: MBC, standard assay procedures; format: cell-based
Method: as §3, §1

Staph. epidermidis 2265 = test: MBC, standard assay procedures; format: cell-based
Method: as §3, §1

Staph. aureus 675 = test: MBC, standard assay procedures; format: cell-based
Method: as §3, §1

Staph. aureus 2620 = test: MBC, standard assay procedures; format: cell-based
Method: as §3, §1

Staph. haemolyticus 651 [17] = test: Mouse protection assay; format: in vivo; conditions: Staphylococcus haemolyticus, 1 h; mice; Staph. haemolyticus 651, Dosage as No. of LD50's=9; treatment one hour post infection; Table IV

CN[C@H](CC(C)C)C(=O)N[C@H]1C(=O)N[C@@H](CC(N)=O)C(=O)N[C@H]2C(=O)N[C@H]3C(=O)N[C@H](C(=O)N[C@H](C(=O)O)c4cc(O)cc(O)c4-c4cc3ccc4O)[C@H](O)c3ccc(c(Cl)c3)Oc3cc2cc(c3O[C@@H]2O[C@H](CO)[C@@H](O)[C@H](O)[C@H]2O[C@H]2C[C@](C)(N)[C@H](O)[C@H](C)O2)Oc2ccc(cc2Cl)[C@H]1O [Vancomycin, vancomycin]
> 100 µg/mL: MBC [4] | MIC [11]
0.8 µg/mL: MBC (Staph. aureus 209P) | MBC [6]
1.6 µg/mL: MBC (Staph. aureus 910 [5]) | MIC (Staph. epidermidis 2479 [8]; Table I) | MIC (Staph. aureus 910 [9]; Staph. aureus 910, Table VIII) | MIC (Staph. aureus 910 [9]; Staphylococcus aureus, 910, read-out: MIC in μg/ml) | MBC (Staph. aureus HH127 [13]; HH127, read-out: MBC in μg/ml, Staph. aureus HH127, Table VIII) | MBC (Staph. aureus 2620; Staphylococcus aureus, 2620, read-out: MBC in μg/ml, Staph. aureus 2620, Table VIII)
1.3 mg/kg: ED50 (Strep. faecalis 34358 [1]; Enterococcus faecalis, 34358, iv, 1 h)
2.8 mg/kg: ED50 (Staph. aureus HH127 [10]; HH127, iv, 1 h)
1.25 mg/kg: ED50 (Strep. faecalis 34358 [1]; Enterococcus faecalis, 34358, 1 h)
6.3 µg/mL: MBC [3] | MBC (Staph. epidermidis 2588) | MIC (Staph. epidermidis 2479 [8]; Table II) | MIC (Staph. epidermidis 2479 [8]; Table IX) | MIC (Staph. epidermidis 2261 [12]) | MBC (Strep. faecalis 657; Enterococcus faecalis, 657, read-out: MBC in μg/ml, Strep. faecalis 657, Table IX) | MBC (Strep. faecalis 657; Enterococcus faecalis, IIIB, read-out: MBC in μg/ml, Strep. faecalis 657, Table IIIB) | MBC (Staph. epidermidis 2479 [14]; Staph. epidermidis 2479, Table IX) | MBC (Staph. epidermidis 2479 [14]; Staphylococcus epidermidis, 2479, read-out: MBC in μg/ml) | MBC (Staph. epidermidis 2479 [14]; Staphylococcus epidermidis, IIIB, read-out: MBC in μg/ml) | MBC (Staph. epidermidis 2265; Staphylococcus epidermidis, 2265, read-out: MBC in μg/ml, Staph. epidermidis 2265, Table IX) | MBC (Staph. epidermidis 2265; Staphylococcus epidermidis, IIIB, read-out: MBC in μg/ml, Staph. epidermidis 2265, Table IIIB) | MBC (Staph. aureus 675; Staphylococcus aureus, 675, read-out: MBC in μg/ml, Staph. aureus 675, Table IX) | MBC (Staph. aureus 675; Staphylococcus aureus, IIIB, read-out: MBC in μg/ml, Staph. aureus 675, Table IIIB)
50 µg/mL: MBC (Strep. faecalis 34358 [15]; Enterococcus faecalis, 34358, read-out: MBC in μg/ml, Strep. faecalis 34358, Table VIII)
0.26 mg/kg: ED50 (Staph. aureus HH127 [10]; HH127, 1 h)
18 min: half-life [2]
3.1 µg/mL: MBC (Staph. epidermidis 2256) | MBC (Staph. epidermidis 2261 [7]) | MIC (Staph. epidermidis 2479 [8]; Table VIII) | MBC (Staph. aureus HH127 [13]; HH127, read-out: MBC in μg/ml, Staph. aureus HH127, Table IX) | MBC (Staph. aureus HH127 [13]; IIIB, read-out: MBC in μg/ml, Staph. aureus HH127, Table IIIB) | MBC (Strep. faecalis 657; Enterococcus faecalis, 657, read-out: MBC in μg/ml, Strep. faecalis 657, Table VIII) | MBC (Staph. haemolyticus 651 [16]; Staphylococcus haemolyticus, 651, read-out: MBC in μg/ml, Staph. haemolyticus 651, Table VIII) | MBC (Staph. epidermidis 2265; Staphylococcus epidermidis, 2265, read-out: MBC in μg/ml, Staph. epidermidis 2265, Table VIII) | MBC (Staph. aureus 675; Staphylococcus aureus, 675, read-out: MBC in μg/ml, Staph. aureus 675, Table VIII) | MBC (Staph. aureus 2620; Staphylococcus aureus, 2620, read-out: MBC in μg/ml, Staph. aureus 2620, Table IX) | MBC (Staph. aureus 2620; Staphylococcus aureus, IIIB, read-out: MBC in μg/ml, Staph. aureus 2620, Table IIIB)
2.2 mg/kg: ED50 (Staph. haemolyticus 651 [17])
12.5 µg/mL: MBC (Strep. faecalis 34358 [15]; Enterococcus faecalis, 34358, read-out: MBC in μg/ml, Strep. faecalis 34358, Table IX) | MBC (Strep. faecalis 34358 [15]; Enterococcus faecalis, read-out: MBC in μg/ml, Strep. faecalis 34358, Table) | MBC (Staph. haemolyticus 651 [16]; Staphylococcus haemolyticus, 651, read-out: MBC in μg/ml, Staph. haemolyticus 651, Table IX) | MBC (Staph. haemolyticus 651 [16]; Staphylococcus haemolyticus, IIIB, read-out: MBC in μg/ml, Staph. haemolyticus 651, Table IIIB)
